Experimental data reported in paper PMC10313180, “Structure snapshots reveal the mechanism of a bacterial membrane lipoprotein N-acyltransferase” (Science Advances, 2023).
No end group written: not given here. *: point of attachment. dipalmitoylglyceryl = dipalmitoylglyceryl (diacylglyceryl moiety on the cysteine); Palmitoyl = CCCCCCCCCCCCCCCC(=O)*

T1: LntPae (Pseudomonas aeruginosa, UniProt Q9ZI86)
T1 construct: gene lnt; full length, N-terminal thrombin-cleavable His6 tag, pET28a, expressed in E. coli C41(DE3); membrane protein in LMNG micelles or cubic mesophase
T1 sequence (Q9ZI86 1-511): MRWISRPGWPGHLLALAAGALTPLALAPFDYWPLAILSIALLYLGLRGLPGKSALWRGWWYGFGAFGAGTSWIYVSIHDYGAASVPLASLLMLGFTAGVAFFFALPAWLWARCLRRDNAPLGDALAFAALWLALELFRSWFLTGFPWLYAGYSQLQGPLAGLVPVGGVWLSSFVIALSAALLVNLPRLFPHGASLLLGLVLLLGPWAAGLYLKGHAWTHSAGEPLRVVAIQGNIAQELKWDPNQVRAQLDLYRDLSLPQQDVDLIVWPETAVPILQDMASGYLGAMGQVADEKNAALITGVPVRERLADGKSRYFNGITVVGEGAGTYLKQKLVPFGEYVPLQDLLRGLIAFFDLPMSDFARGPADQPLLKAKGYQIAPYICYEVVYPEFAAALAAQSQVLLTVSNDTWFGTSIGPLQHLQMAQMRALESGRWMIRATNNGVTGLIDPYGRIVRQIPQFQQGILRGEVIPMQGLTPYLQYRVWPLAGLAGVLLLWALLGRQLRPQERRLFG


Key:
LntPae [1] = molecular target: T1, LntPae; test: TLC of FP2 to FP3 conversion; assay type: biochemical; details: acyl donor, HA-treated enzyme; 500 uM GPL, 150 uM FP2, pH 7.5, 37 C, 90 min
LntEco [2] = molecular target: T2, LntEco (Escherichia coli, UniProt P23930); test: TLC of FP2 to FP3 conversion; assay type: biochemical; details: acyl donor, HA-treated enzyme; 500 uM GPL, 150 uM FP2, pH 7.5, 37 C, 90 min
T2 construct: gene lnt; full length, N-terminal thrombin-cleavable His6 tag, pET28a, expressed in E. coli C43(DE3); membrane protein in LMNG or DDM micelles; 57 kDa; HA-treated for GPL specificity assay

LntPae [3] = molecular target: T1, LntPae; test: X-ray crystallography (in meso); assay type: binding; details: covalent; at catalytic Cys382; two monooleins in pocket; 2.6 A
LntEco [4] = molecular target: T2, LntEco; test: X-ray crystallography (in surfo); assay type: binding; details: covalent; dithiocarbamate at catalytic Cys387; lyso-PE also bound; 2.66 A
[5] = molecular target: T3, LntEco Cys387Ala (apolipoprotein N-acyltransferase from E. coli, inactive mutant) (E. coli, UniProt P23930 1-512, Cys387Ala); test: cryo-EM structure; Lnt mutant (16 mg/ml) incubated with Pam3CSK4 or FP2 (10 mg/ml in DMSO) for 1 hour at 21°C, then Superdex 200 10/300 Increase in 20 mM sodium citrate pH 6, 150 mM NaCl, 0.001% LMNG; protein in a detergent micelle; details: both partners purified
T3 construct: Apolipoprotein N-acyltransferase Lnt, E. coli, 57-kDa membrane protein; gene synthesized and cloned into pET28a (Nde I/Xho I); residues counted in E. coli numbering; The His6 tag is thrombin-cleavable; no cleavage step is described; In a detergent micelle (LMNG); also called Lnt Cys387Ala; C387A; source: E. coli C43(DE3), purified (Ni-NTA, Superdex 200) in LMNG

| Molecule | TLC of FP2 to FP3 conversion (LntPae [1]) | TLC of FP2 to FP3 conversion (LntEco [2]) | X-ray crystallography (in meso) (LntPae [3]) | X-ray crystallography (in surfo) (LntEco [4]) | binding result [5] |
| --- | --- | --- | --- | --- | --- |
| CCCCCCCC/C=C\CCCCCCCC(=O)O[C@H](COC(=O)CCCCCCCCCCCCCCC)COP(=O)(O)OCCN [POPE, palmitoyloleoylphosphatidylethanolamine] | (POPE) were effective acyl donors for LntEco and LntPae | (POPE) were effective acyl donors for LntEco and LntPae |  |  |  |
| CCCCCCCCCCCCCCN=C=S [TITC, tetradecyl-1-isothiocyanate] |  |  | a structure of the TITC-modified LntPae was obtained with two monooleins in the binding pocket | Crystals of the TITC-modified protein (Lnt-TITC), grown in the presence of E. coli GPLs |  |
| CCCCCCCC/C=C\CCCCCCCC(=O)O[C@H](COC(=O)CCCCCCCCCCCCCCC)COP(=O)(O)OCC(O)CO (stereo partly shown) [POPG, palmitoyloleoylphosphatidylglycerol] | (POPE) were effective acyl donors for LntEco and LntPae | palmitoyloleoylphosphatidylglycerol (POPG) and palmitoyloleoylphosphatidylethanolamine (POPE) were effective acyl donors for LntEco |  |  |  |
| Palmitoyl-C(dipalmitoylglyceryl)SKKKK (Printed in three-letter code: Cys-Ser-Lys-Lys-Lys-Lys; triacylated bacterial lipoprotein peptide analog; Triacylated lipopeptide; also called TA-BLPtide product; BLPtide; source: synthetic peptide (commercial or in-house synthesized BLP peptide analog)) [Pam3CSK4, Cys(Pam3)-Ser-(Lys)4] |  |  |  |  | binds |
